Assay results published in patent US6458835B2, “Method of inhibiting or treating chemotherapy-induced hair loss” (Bristol-Myers Squibb Company, priority 1997, dated 2002).

Tests used:
[1] = system: C3H mice; experiment: Hair growth (hair follicle stimulation) in C3H mouse model, topical application; assay type: in vivo; conditions: for percent of animals showing hair follicle stimulation / time of onset of follicle stimulation: 2% solution topical 1x daily; for time of onset of follicle stimulation: male C3H mice, 5 days per week
From the text: The two enantiomers were compared topically for hair growth in C3H mice.
The C3H mouse is a useful model for studying hair growth. Its usefulness rests with the fact that skin pigmentation of this animal is provided by the melanocytes of the hair follicle and not the epidermis. In the telogen or the resting phase of the hair follicle, the skin is pink. In the earliest phase of anagen or the growth phase, there is sudden graying of the skin and as the anagen phase progresses the skin becomes darker in color. In this study, visual observation was used as an in vivo assay of anagen induction. Furthermore as anagen develops, the skin thickness increases from a thin telogen skin to a measurably thickened anagen skin. Thus, recording the skin color and microscopic thickness of skin from these mice offers a sensitive, quantifiable and convenient method of assessing the phases of hair growth.
Groups of 20, six to seven week old male C3H mice with hair follicles in the resting phase of hair growth were used. At this stage in their life, the hair follicles remain in the telogen phase for up to 30 days or longer. This provides an adequate window of time to screen drugs. […] This stimulation is manifested by the shortening of the telogen phase of the hair follicle cycle.
Animals were anesthetized with ketamine/rompun (100 mg/Kg and 12 mg/Kg) IP and the hair over a defined dorsal area were closely clipped.
The vehicle employed was ethanol/propylene glycol/water, 60/30/10. Treatment was continued for at least 4-5 weeks.
Animals were observed daily for side effects and changes to the test sites. All observations were documented. Test sites were graded weekly for changes in skin color and hair growth. In this study drug effects were evaluated using the visual observation of skin changing from pink to gray and resulting in hair growth.

[2] = Vasorelaxant potency

Row | Structure (SMILES) | onset of action compared to the corresponding enantiomer ([1]; C3H mice, versus (S)-enantiomer) | percent of animals showing hair follicle stimulation ([1]; by day 11 of treatment) | percent of animals showing hair follicle stimulation ([1]; by day 14) | percent of animals showing hair follicle stimulation ([1]; by day 28) | time of onset of follicle stimulation [1] | hair growth promoting ability relative to the (S)-enantiomer ([1]; producing hair growth within 11 days of treatment) | incidence of hair follicle stimulation compared to the other enantiomer ([1]; throughout the treatment period, versus Example 2-(S)-enantiomer) | melting point | IC50 [2]
1 | C[C@@H](NC(=NC#N)Nc1ccc(C#N)cc1)C(C)(C)C [Example 1, (R)-4-[[(Cyanoimino)[(1,2,2-trimethylpropyl)amino]-methyl]amino]benzonitrile] | faster onset of action | 40% | 50% | 85% | 7 days | 8 times | higher incidence of hair follicle stimulation | 159 to 160 °C | 47 ± 17 nM
2 | C[C@H](NC(=NC#N)Nc1ccc(C#N)cc1)C(C)(C)C [Example 2, (S)-4-[[(Cyanoimino)[(1,2,2-trimethylpropyl)amino]-methyl]amino]benzonitrile] |  | 5% | 25% | 65% | 11 days |  |  | 158 to 159 °C | 157 ± 35 nM
